Assay results from ChEMBL document CHEMBL1142520, “Potent, selective and orally bioavailable dihydropyrimidine inhibitors of Rho kinase (ROCK1) as potential therapeutic agents for cardiovascular diseases” (J Med Chem, 2008).
One block for each molecule: values may come before it.

What was measured:
[1] = biological target: Rho-associated protein kinase 1 (Homo sapiens, UniProt Q13464); experiment: Inhibition of human recombinant ROCK1 kinase expressed in insect Sf9 cells by SPA
[2] = Oral bioavailability in Sprague-Dawley rat at 1.2 mg/kg; type: ADME, organism-based; conditions: in vivo
[3] = biological target: Cytochrome P450 3A4 (Homo sapiens, UniProt P08684); experiment: Inhibition of CYP3A4; type: ADME
Cytochrome P450 3A4, sequence (P08684 whole entry): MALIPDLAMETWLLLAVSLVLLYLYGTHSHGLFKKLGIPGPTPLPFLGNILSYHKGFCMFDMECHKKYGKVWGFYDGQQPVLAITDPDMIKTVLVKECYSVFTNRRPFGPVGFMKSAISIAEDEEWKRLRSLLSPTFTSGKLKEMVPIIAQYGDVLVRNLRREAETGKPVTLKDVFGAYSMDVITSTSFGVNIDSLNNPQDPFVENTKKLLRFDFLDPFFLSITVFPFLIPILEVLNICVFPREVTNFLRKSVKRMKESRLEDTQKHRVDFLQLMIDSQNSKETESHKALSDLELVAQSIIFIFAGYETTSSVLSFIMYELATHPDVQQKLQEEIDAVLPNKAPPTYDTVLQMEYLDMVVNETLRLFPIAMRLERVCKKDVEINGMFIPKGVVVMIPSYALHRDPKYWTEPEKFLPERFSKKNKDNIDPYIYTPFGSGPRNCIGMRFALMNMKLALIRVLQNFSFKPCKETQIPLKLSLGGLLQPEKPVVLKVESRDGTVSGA

[4] = biological target: Cytochrome P450 2D6 (Homo sapiens, UniProt P10635); experiment: Inhibition of CYP2D6; type: ADME
Cytochrome P450 2D6, sequence (P10635 whole entry): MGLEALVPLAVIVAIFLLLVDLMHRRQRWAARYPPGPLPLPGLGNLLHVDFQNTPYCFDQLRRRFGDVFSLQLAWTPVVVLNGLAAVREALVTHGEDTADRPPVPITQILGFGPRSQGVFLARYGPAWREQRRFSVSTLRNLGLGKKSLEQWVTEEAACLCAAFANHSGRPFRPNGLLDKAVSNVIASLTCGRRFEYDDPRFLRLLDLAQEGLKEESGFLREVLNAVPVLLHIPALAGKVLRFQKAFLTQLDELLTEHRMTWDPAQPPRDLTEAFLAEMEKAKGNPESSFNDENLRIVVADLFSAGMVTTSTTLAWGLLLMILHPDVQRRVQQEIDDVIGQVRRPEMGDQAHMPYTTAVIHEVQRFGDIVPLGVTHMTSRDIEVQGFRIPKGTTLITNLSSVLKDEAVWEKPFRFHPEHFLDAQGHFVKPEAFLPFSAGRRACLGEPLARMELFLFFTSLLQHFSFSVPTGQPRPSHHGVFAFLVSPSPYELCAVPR

[5] = tested on: Rattus norvegicus; experiment: (§1) Half life in Sprague-Dawley rat at 1.1 mg/kg, iv; type: ADME, organism-based; parameters: dose 1.1 mg/kg, route intravenous; conditions: in vivo
[6] = tested on: Rattus norvegicus; experiment: (§2) Volume of distribution at steady state in Sprague-Dawley rat at 1.1 mg/kg, iv; type: ADME, organism-based; parameters: dose 1.1 mg/kg, route intravenous; conditions: in vivo
[7] = Oral bioavailability in Sprague-Dawley rat at 1.1 mg/kg; type: ADME, organism-based; conditions: in vivo
[8] = biological target: Cytochrome P450 2C9 (Homo sapiens, UniProt P11712); experiment: Inhibition of CYP2C9; type: ADME
Cytochrome P450 2C9, sequence (P11712 whole entry): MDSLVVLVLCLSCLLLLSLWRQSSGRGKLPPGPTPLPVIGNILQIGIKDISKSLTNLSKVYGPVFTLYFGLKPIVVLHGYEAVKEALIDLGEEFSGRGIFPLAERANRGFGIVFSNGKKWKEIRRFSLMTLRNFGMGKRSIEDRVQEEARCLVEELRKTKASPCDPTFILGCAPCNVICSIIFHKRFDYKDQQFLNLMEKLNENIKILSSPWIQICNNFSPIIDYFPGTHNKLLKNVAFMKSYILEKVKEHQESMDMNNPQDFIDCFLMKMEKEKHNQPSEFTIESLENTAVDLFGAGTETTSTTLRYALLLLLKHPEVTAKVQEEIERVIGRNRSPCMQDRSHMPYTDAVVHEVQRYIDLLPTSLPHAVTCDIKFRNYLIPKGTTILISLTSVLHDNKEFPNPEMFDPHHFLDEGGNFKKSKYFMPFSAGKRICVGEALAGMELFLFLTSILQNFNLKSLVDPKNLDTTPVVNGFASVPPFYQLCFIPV

[9] = Clearance in Sprague-Dawley rat at 1.2 mg/kg, iv; type: ADME, organism-based; parameters: dose 1.2 mg/kg, route intravenous; conditions: in vivo
[10] = Half life in Sprague-Dawley rat at 1.2 mg/kg, iv; type: ADME, organism-based; parameters: dose 1.2 mg/kg, route intravenous; conditions: in vivo
[11] = Volume of distribution at steady state in Sprague-Dawley rat at 1.2 mg/kg, iv; type: ADME, organism-based; parameters: dose 1.2 mg/kg, route intravenous; conditions: in vivo, read-out: Vdss
[12] = Half life in Sprague-Dawley rat at 1.8 mg/kg, iv; type: ADME, organism-based; parameters: dose 1.8 mg/kg, route intravenous; conditions: in vivo
[13] = biological target: Ribosomal protein S6 kinase beta-1 (Homo sapiens, UniProt P23443); experiment: Inhibition of p70S6K
Ribosomal protein S6 kinase beta-1, sequence (P23443 whole entry): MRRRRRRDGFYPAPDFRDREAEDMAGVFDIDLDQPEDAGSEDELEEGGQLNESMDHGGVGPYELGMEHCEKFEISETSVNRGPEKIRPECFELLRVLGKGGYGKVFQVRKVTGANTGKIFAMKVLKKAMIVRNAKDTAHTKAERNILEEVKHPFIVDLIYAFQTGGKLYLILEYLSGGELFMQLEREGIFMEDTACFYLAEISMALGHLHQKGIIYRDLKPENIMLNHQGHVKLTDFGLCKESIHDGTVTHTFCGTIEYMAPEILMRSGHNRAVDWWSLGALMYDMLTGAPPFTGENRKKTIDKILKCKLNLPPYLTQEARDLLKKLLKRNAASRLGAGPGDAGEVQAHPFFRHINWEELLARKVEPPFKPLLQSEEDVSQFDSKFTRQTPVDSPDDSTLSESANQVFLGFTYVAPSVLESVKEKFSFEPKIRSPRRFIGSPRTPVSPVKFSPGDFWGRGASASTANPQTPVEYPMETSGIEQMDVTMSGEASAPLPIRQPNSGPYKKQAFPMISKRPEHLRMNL

[14] = Oral bioavailability in Sprague-Dawley rat at 1.8 mg/kg; type: ADME, organism-based; conditions: in vivo
[15] = tested on: Aorta; experiment: Inhibition of phenylephrine-induced aortic ring contraction in Sprague-Dawley rat; type: functional, tissue-based
[16] = biological target: Ribosomal protein S6 kinase alpha-1 (Homo sapiens, UniProt Q15418); experiment: Inhibition of RSK1
Ribosomal protein S6 kinase alpha-1, sequence (Q15418 whole entry): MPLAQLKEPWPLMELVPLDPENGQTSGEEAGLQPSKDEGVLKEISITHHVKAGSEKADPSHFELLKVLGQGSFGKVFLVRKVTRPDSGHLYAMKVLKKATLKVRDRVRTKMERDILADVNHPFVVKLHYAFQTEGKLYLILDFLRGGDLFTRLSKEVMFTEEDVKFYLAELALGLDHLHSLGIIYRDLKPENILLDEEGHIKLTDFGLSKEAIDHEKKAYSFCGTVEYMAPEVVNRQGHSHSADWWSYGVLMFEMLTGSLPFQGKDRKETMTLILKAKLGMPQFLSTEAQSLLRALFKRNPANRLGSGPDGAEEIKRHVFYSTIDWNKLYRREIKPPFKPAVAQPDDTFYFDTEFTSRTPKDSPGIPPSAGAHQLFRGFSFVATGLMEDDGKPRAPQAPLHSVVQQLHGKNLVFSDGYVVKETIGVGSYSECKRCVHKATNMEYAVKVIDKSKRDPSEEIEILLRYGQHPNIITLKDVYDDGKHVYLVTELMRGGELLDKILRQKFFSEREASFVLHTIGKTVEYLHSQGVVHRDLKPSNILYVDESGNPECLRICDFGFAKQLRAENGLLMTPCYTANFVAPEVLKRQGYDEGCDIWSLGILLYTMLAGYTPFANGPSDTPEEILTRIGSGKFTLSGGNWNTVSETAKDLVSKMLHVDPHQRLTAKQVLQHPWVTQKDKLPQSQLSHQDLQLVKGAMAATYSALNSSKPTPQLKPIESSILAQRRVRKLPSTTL

[17] = Volume of distribution at steady state in Sprague-Dawley rat at 1.8 mg/kg, iv; type: ADME, organism-based; parameters: dose 1.8 mg/kg, route intravenous; conditions: in vivo, read-out: Vdss
[18] = Clearance in Sprague-Dawley rat at 1.8 mg/kg, iv; type: ADME, organism-based; parameters: dose 1.8 mg/kg, route intravenous; conditions: in vivo
[19] = as §1; type: ADME, organism-based; parameters: dose 1.1 mg/kg, route intravenous; conditions: Sprague-Dawley, in vivo
[20] = as §2; type: ADME, organism-based; parameters: dose 1.1 mg/kg, route intravenous; conditions: Sprague-Dawley, in vivo, read-out: Vdss
[21] = Clearance in Sprague-Dawley rat at 1.1 mg/kg, iv; type: ADME, organism-based; parameters: dose 1.1 mg/kg, route intravenous; conditions: in vivo
[22] = Oral bioavailability in monkey; type: ADME, organism-based, Macaca mulatta; conditions: rhesus monkey, in vivo
[23] = tested on: Rattus norvegicus; experiment: Decrease in mean arterial pressure in conscious spontaneous hypertensive rat model at 30 mg/kg, po
[24] = Half life in monkey; type: ADME, organism-based, Macaca mulatta; conditions: rhesus monkey, in vivo
[25] = Volume of distribution at steady state in Sprague-Dawley rat at 1.3 mg/kg, iv; type: ADME, organism-based; parameters: dose 1.3 mg/kg, route intravenous; conditions: in vivo, read-out: Vdss
[26] = Clearance in Sprague-Dawley rat at 1.3 mg/kg, iv; type: ADME, organism-based; parameters: dose 1.3 mg/kg, route intravenous; conditions: in vivo
[27] = Half life in Sprague-Dawley rat at 1.3 mg/kg, iv; type: ADME, organism-based; parameters: dose 1.3 mg/kg, route intravenous; conditions: in vivo

Rho-associated protein kinase 1, sequence (Q13464 whole entry): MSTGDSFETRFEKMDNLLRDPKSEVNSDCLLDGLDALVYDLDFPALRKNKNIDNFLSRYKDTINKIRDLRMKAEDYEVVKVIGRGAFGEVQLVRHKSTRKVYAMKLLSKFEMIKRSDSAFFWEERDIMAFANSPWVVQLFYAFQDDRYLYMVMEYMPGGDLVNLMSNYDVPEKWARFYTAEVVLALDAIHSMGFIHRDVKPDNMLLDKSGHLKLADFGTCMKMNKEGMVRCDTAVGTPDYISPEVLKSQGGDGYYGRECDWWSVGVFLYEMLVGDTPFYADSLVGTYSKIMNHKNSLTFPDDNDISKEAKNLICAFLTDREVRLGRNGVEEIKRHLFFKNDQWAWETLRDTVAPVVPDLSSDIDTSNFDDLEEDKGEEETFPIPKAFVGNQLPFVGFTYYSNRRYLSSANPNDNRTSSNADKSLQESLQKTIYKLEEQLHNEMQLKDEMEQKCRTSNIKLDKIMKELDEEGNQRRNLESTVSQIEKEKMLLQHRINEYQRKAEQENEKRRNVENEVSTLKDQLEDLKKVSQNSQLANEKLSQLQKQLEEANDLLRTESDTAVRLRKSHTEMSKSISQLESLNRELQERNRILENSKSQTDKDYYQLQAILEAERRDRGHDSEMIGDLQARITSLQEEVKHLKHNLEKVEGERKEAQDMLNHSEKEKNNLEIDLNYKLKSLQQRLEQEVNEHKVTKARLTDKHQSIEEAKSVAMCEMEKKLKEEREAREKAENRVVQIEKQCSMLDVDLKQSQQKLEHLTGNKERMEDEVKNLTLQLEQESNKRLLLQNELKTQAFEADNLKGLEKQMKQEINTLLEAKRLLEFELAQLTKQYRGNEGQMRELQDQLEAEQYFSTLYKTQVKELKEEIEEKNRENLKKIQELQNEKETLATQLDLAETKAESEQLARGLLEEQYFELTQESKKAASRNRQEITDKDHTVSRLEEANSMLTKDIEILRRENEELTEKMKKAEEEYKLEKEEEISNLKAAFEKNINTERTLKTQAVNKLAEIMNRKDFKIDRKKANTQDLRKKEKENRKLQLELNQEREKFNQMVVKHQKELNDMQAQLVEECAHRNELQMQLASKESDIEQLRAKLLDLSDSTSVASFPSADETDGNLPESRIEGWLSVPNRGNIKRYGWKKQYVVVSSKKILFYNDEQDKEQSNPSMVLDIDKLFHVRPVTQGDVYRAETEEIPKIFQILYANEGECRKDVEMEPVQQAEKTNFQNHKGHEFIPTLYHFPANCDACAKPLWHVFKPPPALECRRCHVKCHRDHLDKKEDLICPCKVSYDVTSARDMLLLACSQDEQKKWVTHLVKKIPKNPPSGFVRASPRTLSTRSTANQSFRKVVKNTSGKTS

IC50 [1]: 129 nM
SMILES: CC1=C(C(=O)Nc2ccc3[nH]ncc3c2)C(c2ccc(F)cc2)N=C(c2cccc(C)c2)N1 (configuration not stated)

IC50 [1]: 150 nM
SMILES: COc1ccc(C2=NC(c3ccc(S(C)(=O)=O)cc3)C(C(=O)Nc3ccc4[nH]ncc4c3)=C(C)N2)cc1 (configuration not stated)

IC50 [1]: 8 nM
bioavailability [2]: 0%
SMILES: CC1=C(C(=O)Nc2ccc3[nH]ncc3c2)C(c2ccc(F)cc2)N=C(c2ccncc2)N1 (configuration not stated)

IC50 [1]: 105 nM
SMILES: CC1=C(C(=O)Nc2ccc3[nH]ncc3c2)C(c2ccc(F)cc2)N=C(c2cnccn2)N1 (configuration not stated)

IC50 [3]: 5500 nM
IC50 [4]: 5700 nM
t1/2 [5]: 1.03 h
Vdss [6]: 1.6 L/kg
IC50 [1]: 4 nM
bioavailability [7]: 7%
SMILES: CC1=C(C(=O)Nc2ccc3[nH]ncc3c2)C(c2ccc(Cl)cc2F)N=C(c2ccnc(Cl)c2)N1 (configuration not stated)

SMILES: COc1cc(C2=NC(c3ccc(Cl)cc3F)C(C(=O)Nc3ccc4[nH]ncc4c3)=C(C)N2)ccn1 (configuration not stated)
IC50 [3]: 4300 nM
IC50 [4]: 3700 nM
t1/2 [5]: 0.567 h
Vdss [6]: 2 L/kg
IC50 [1]: 2 nM
bioavailability [7]: 21%

IC50 [1]: 288 nM
SMILES: CC1=C(C(=O)Nc2ccc3[nH]ncc3c2)C(c2ccc(F)cc2)N=C(c2cccc(C(F)(F)F)c2)N1 (configuration not stated)

SMILES: COc1ccc(C2=NC(c3ccc(Cl)cc3F)C(C(=O)Nc3ccc4[nH]ncc4c3)=C(C)N2)cn1 (configuration not stated)
IC50 [3]: 2500 nM
IC50 [4]: 1200 nM
IC50 [1]: 3 nM
bioavailability [7]: 27%

IC50 [1]: 68 nM
SMILES: COc1ccc(C2=NC(c3ccc(S(N)(=O)=O)cc3)C(C(=O)Nc3ccc4[nH]ncc4c3)=C(C)N2)cc1 (configuration not stated)

IC50 [1]: 10 nM
SMILES: CC1=C(C(=O)Nc2cc3cn[nH]c3cc2F)C(c2ccc(Cl)cc2F)N=C(c2ccnc(C)c2)N1 (configuration not stated)

IC50 [1]: 101 nM
SMILES: CC1=C(C(=O)Nc2ccc3[nH]ncc3c2)C(c2ccc(F)cc2)N=C(c2ccc(C)cc2)N1 (configuration not stated)

IC50 [1]: 104 nM
SMILES: CC1=C(C(=O)Nc2ccc3[nH]ncc3c2)C(c2ccc(F)cc2)N=C(c2ccc(C)c(F)c2)N1 (configuration not stated)

SMILES: CC1=C(C(=O)Nc2ccc3[nH]ncc3c2)C(c2ccc(F)cc2)N=C(c2ccccn2)N1 (configuration not stated)
IC50 [1]: 180 nM

IC50 [1]: 15 nM
SMILES: CC1=C(C(=O)Nc2ccc3[nH]nc(C)c3c2)C(c2ccc(Cl)cc2F)N=C(c2ccnc(Cl)c2)N1 (configuration not stated)

IC50 [8]: 8400 nM
IC50 [3]: 5300 nM
IC50 [4]: 2100 nM
t1/2 [5]: 0.767 h
Vdss [6]: 2.5 L/kg
IC50 [1]: 6 nM
bioavailability [7]: 53%
SMILES: COc1cc(C2=NC(c3ccc(Cl)cc3F)C(C(=O)Nc3cc4cn[nH]c4cc3F)=C(C)N2)ccn1 (configuration not stated)

clearance [9]: 55 mL/min/kg
IC50 [1]: 46 nM
half-life [10]: 2.82 h
Vd [11]: 5.1 L/kg
bioavailability [2]: 35%
SMILES: COc1ccc(C2=NC(c3ccc(F)cc3)C(C(=O)Nc3ccc4[nH]ncc4c3)=C(C)N2)cc1 (configuration not stated)

SMILES: CC1=C(C(=O)Nc2ccc3[nH]ncc3c2)C(c2ccc(F)cc2)N=C(c2ccccc2)N1 (configuration not stated)
half-life [12]: 1 h
IC50 [8]: 640 nM
IC50 [13]: 4500 nM
bioavailability [14]: 16%
IC50 [3]: 350 nM
IC50 [4]: 90 nM
IC50 [15]: 1300 nM
IC50 [16]: 5300 nM
IC50 [1]: 105 nM
Vd [17]: 0.8 L/kg
clearance [18]: 15 mL/min/kg

IC50 [1]: 863 nM
SMILES: COc1ccc(C2=NC(C)C(C(=O)Nc3ccc4[nH]ncc4c3)=C(C)N2)cc1 (configuration not stated)

IC50 [1]: 26 nM
SMILES: COc1ccc(C2=NC(c3ccc(C(F)(F)F)cc3F)C(C(=O)Nc3ccc4[nH]ncc4c3)=C(C)N2)cc1 (configuration not stated)

IC50 [13]: 2100 nM
IC50 [3]: 2700 nM
IC50 [4]: 200 nM
IC50 [15]: 200 nM
IC50 [16]: 510 nM
half-life [19]: 1.13 h
Vd [20]: 6.46 L/kg
clearance [21]: 108 mL/min/kg
IC50 [1]: 5 nM
bioavailability [7]: 58%
SMILES: COc1ccc(C2=NC(c3ccc(Cl)cc3F)C(C(=O)Nc3ccc4[nH]ncc4c3)=C(C)N2)cc1 (configuration not stated)

IC50 [1]: 129 nM
SMILES: CC1=C(C(=O)Nc2ccc3[nH]ncc3c2)C(c2ccc(F)cc2)N=C(c2ccc(Cl)cc2)N1 (configuration not stated)

IC50 [1]: 11 nM
SMILES: CCOc1cc(C2=NC(c3ccc(Cl)cc3F)C(C(=O)Nc3cc4cn[nH]c4cc3F)=C(C)N2)ccn1 (configuration not stated)

bioavailability [22]: 19%
IC50 [8]: 2500 nM
IC50 [13]: 1000 nM
IC50 [4]: 5200 nM
IC50 [15]: 256 nM
IC50 [16]: 398 nM
half-life [24]: 2.2 h
t1/2 [5]: 1.75 h
Vdss [6]: 2 L/kg
IC50 [1]: 6 nM
bioavailability [7]: 49%
SMILES: CC1=C(C(=O)Nc2cc3cn[nH]c3cc2F)C(c2ccc(Cl)cc2F)N=C(c2ccnc(Cl)c2)N1 (configuration not stated)
Activity [23]: 25 mmHg

Vd [25]: 2.2 L/kg
clearance [26]: 49 mL/min/kg
IC50 [15]: 760 nM
half-life [27]: 0.7 h
SMILES: CC1=C(C(=O)Nc2ccc3[nH]ncc3c2)C(c2ccc(F)cc2)NC(=O)N1 (configuration not stated) [GSK-180736A]

IC50 [1]: 75 nM
SMILES: CC1=C(C(=O)Nc2ccc3[nH]ncc3c2)C(c2ccc(F)cc2)N=C(c2ccc(C(F)(F)F)nc2)N1 (configuration not stated) [GSK-317354A]
